Where two headings read alike, the source gives them in different places. Square brackets hold non-standard residues; d marks the D form. Peptide text beside a SMILES is read from it. sY = N[C@@H](Cc1ccc(OS(=O)(=O)O)cc1)C(=O)O; pGlu = O=C1CC[C@@H](C(=O)O)N1
Assays:
[1] = test system: patients suffering from chronic pain in cancer diseases; conditions: i.v. bolus 1 nanogram/kg, single patients
[2] = test system: patients with pain after surgery

For `CSCC[C@H](NC(=O)[C@H](Cc1c[nH]c2ccccc12)NC(=O)CNC(=O)[C@@H](NC(=O)[C@H](Cc1ccc(OS(=O)(=O)O)cc1)NC(=O)[C@H](CC(=O)O)NC(=O)[C@H](CCC(N)=O)NC(=O)[C@@H]1CCC(=O)N1)[C@@H](C)O)C(=O)N[C@@H](CC(=O)O)C(=O)N[C@@H](Cc1ccccc1)C(N)=O` [Ceruletide, ceruletide] ([pGlu]QD[sY]TGWMDF-NH2), the Side-effects [1] was “None”, the Side-effects ([2]; i.m. 0.05 micrograms/kg, single patients (incl. second injection in patients 34, 40)) was “None” and the Side-effects ([2]; i.m. 0.1 micrograms/kg, single patients) was “None and Burning sensation at the injection site and pain sensation at the injection site”.
